Laboratory results as given in PubChem BioAssay AID1963875 (Molecular Pharmacology Branch, DTP, NCI, 2024).

Test system: KRAS-mutant PDC complex spheroid viability
Assay: Anticancer human tumor 186277-243-T-J2-PDC patient-derived colon adenocarcinoma cell line growth inhibition [KRAS2]
Details: for IC50: curve of first compound; for viability, T/C: stronger effect = lower value; active means viability on the fitted dose curve at most 10% of control; inactive means the rest
Method in brief: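 Combination screen of spheroid viability in tumor-cell co-cultures with endothelial (HUVEC) and mesenchymal stem cell stroma. Each agent was tested in half-log dilutions, topping at clinical Cmax or at 10 microM without a known Cmax.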

[1] = second compound 0.1 µM, first compound 0.0316 µM
[2] = second compound 0.1 µM, first compound 0.1 µM
[3] = second compound 0.1 µM, first compound 0.316 µM
[4] = second compound 0.1 µM, first compound 1 µM
[5] = second compound 0.1 µM, first compound 3.16 µM
[6] = second compound 0.1 µM, first compound 10 µM
[7] = second compound 0.316 µM, first compound 0.0316 µM
[8] = second compound 0.316 µM, first compound 0.1 µM
[9] = second compound 0.316 µM, first compound 0.316 µM
[10] = second compound 0.316 µM, first compound 1 µM
[11] = second compound 0.316 µM, first compound 3.16 µM
[12] = second compound 0.316 µM, first compound 10 µM
[13] = second compound 1 µM, first compound 0.0316 µM
[14] = second compound 1 µM, first compound 0.1 µM
[15] = second compound 1 µM, first compound 0.316 µM
[16] = second compound 1 µM, first compound 1 µM
[17] = second compound 1 µM, first compound 3.16 µM
[18] = second compound 1 µM, first compound 10 µM
[19] = second compound 3.16 µM, first compound 0.0316 µM
[20] = second compound 3.16 µM, first compound 0.1 µM
[21] = second compound 3.16 µM, first compound 0.316 µM
[22] = second compound 3.16 µM, first compound 1 µM
[23] = second compound 3.16 µM, first compound 3.16 µM
[24] = second compound 3.16 µM, first compound 10 µM
[25] = second compound 10 µM, first compound 0.0316 µM
[26] = second compound 10 µM, first compound 0.1 µM
[27] = second compound 10 µM, first compound 0.316 µM
[28] = second compound 10 µM, first compound 1 µM
[29] = second compound 10 µM, first compound 3.16 µM
[30] = second compound 10 µM, first compound 10 µM
[31] = second compound 0.1 µM, first compound 0.000316 µM
[32] = second compound 0.1 µM, first compound 0.001 µM
[33] = second compound 0.1 µM, first compound 0.00316 µM
[34] = second compound 0.1 µM, first compound 0.01 µM
[35] = second compound 0.316 µM, first compound 0.000316 µM
[36] = second compound 0.316 µM, first compound 0.001 µM
[37] = second compound 0.316 µM, first compound 0.00316 µM
[38] = second compound 0.316 µM, first compound 0.01 µM
[39] = second compound 1 µM, first compound 0.000316 µM
[40] = second compound 1 µM, first compound 0.001 µM
[41] = second compound 1 µM, first compound 0.00316 µM
[42] = second compound 1 µM, first compound 0.01 µM
[43] = second compound 3.16 µM, first compound 0.000316 µM
[44] = second compound 3.16 µM, first compound 0.001 µM
[45] = second compound 3.16 µM, first compound 0.00316 µM
[46] = second compound 3.16 µM, first compound 0.01 µM
[47] = second compound 10 µM, first compound 0.000316 µM
[48] = second compound 10 µM, first compound 0.001 µM
[49] = second compound 10 µM, first compound 0.00316 µM
[50] = second compound 10 µM, first compound 0.01 µM
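Wherever viability, T/C is given: viability read after seven days of compound exposure; 100% = DMSO vehicle-treated spheroids so lower means less viable.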

CC(C)NCC(C(=O)N1CCN(c2ncnc3c2C(C)CC3O)CC1)c1ccc(Cl)cc1 (stereo not given) + CC1OCC2(CCN(c3cnc(Sc4ccnc(N)c4Cl)c(N)n3)CC2)C1N
inactive: viability, T/C [1] 110% | viability, T/C [2] 98.2% | viability, T/C [3] 55.2% | viability, T/C [4] 34.9% | viability, T/C [5] 25.7% | viability, T/C [6] 9.35% | viability, T/C [7] 134% | viability, T/C [8] 96.9% | viability, T/C [9] 54.3% | viability, T/C [10] 26.5% | viability, T/C [11] 17.3% | viability, T/C [13] 115% | viability, T/C [14] 94% | viability, T/C [15] 41.5% | viability, T/C [16] 16% | viability, T/C [19] 86.5% | viability, T/C [20] 58.3% | viability, T/C [21] 25.6% | viability, T/C [25] 65.1% | viability, T/C [26] 35.8%
57.2 nM: IC50 (second compound 10 µM)
134 nM: IC50 (second compound 3.16 µM)
268 nM: IC50 (second compound 1 µM)
active: viability, T/C [12] 7.17% | viability, T/C [17] 10.7% | viability, T/C [18] 4.01% | viability, T/C [22] 8.57% | viability, T/C [23] 3.93% | viability, T/C [24] 2.37% | viability, T/C [27] 9.46% | viability, T/C [28] 3.07% | viability, T/C [29] 1.79% | viability, T/C [30] 1.34%
498 nM: IC50 (second compound 0.1 µM)
389 nM: IC50 (second compound 0.316 µM)

CC(C)n1nc(-c2ccc3oc(N)nc3c2)c2c(N)ncnc21 + CC1OCC2(CCN(c3cnc(Sc4ccnc(N)c4Cl)c(N)n3)CC2)C1N
active: viability, T/C [20] 7.43% | viability, T/C [26] 5.7%
8.7 nM: IC50 (second compound 1 µM)
11.9 nM: IC50 (second compound 0.1 µM)
inactive: viability, T/C [31] 107% | viability, T/C [32] 101% | viability, T/C [33] 85.8% | viability, T/C [34] 52.1% | viability, T/C [1] 30% | viability, T/C [2] 16.1% | viability, T/C [35] 113% | viability, T/C [36] 100% | viability, T/C [37] 76.8% | viability, T/C [38] 57% | viability, T/C [7] 30.6% | viability, T/C [8] 15.3% | viability, T/C [39] 103% | viability, T/C [40] 89.7% | viability, T/C [41] 67.5% | viability, T/C [42] 49.9% | viability, T/C [13] 25.3% | viability, T/C [14] 12.9% | viability, T/C [43] 83.8% | viability, T/C [44] 73.4% | viability, T/C [45] 55.9% | viability, T/C [46] 39.5% | viability, T/C [19] 22.6% | viability, T/C [47] 57.4% | viability, T/C [48] 58.8% | viability, T/C [49] 33.7% | viability, T/C [50] 25.3% | viability, T/C [25] 13.8%
1.26 nM: IC50 (second compound 10 µM)
12.7 nM: IC50 (second compound 0.316 µM)
4.98 nM: IC50 (second compound 3.16 µM)

CC1(C)CCC(CN2CCN(c3ccc(C(=O)NS(=O)(=O)c4ccc(NCC5CCOCC5)c([N+](=O)[O-])c4)c(Oc4cnc5[nH]ccc5c4)c3)CC2)=C(c2ccc(Cl)cc2)C1 + CC1OCC2(CCN(c3cnc(Sc4ccnc(N)c4Cl)c(N)n3)CC2)C1N
2270 nM: IC50 (second compound 0.1 µM)
inactive: viability, T/C [1] 103% | viability, T/C [2] 115% | viability, T/C [3] 127% | viability, T/C [4] 120% | viability, T/C [5] 23.1% | viability, T/C [7] 128% | viability, T/C [8] 136% | viability, T/C [9] 130% | viability, T/C [10] 130% | viability, T/C [11] 22.1% | viability, T/C [13] 140% | viability, T/C [14] 115% | viability, T/C [15] 113% | viability, T/C [16] 116% | viability, T/C [17] 16% | viability, T/C [19] 98.9% | viability, T/C [20] 112% | viability, T/C [21] 100% | viability, T/C [22] 93.8% | viability, T/C [25] 80.1% | viability, T/C [26] 82.7% | viability, T/C [27] 87.7% | viability, T/C [28] 79%
2350 nM: IC50 (second compound 0.316 µM)
1550 nM: IC50 (second compound 10 µM)
active: viability, T/C [6] 0.76% | viability, T/C [12] 0.38% | viability, T/C [18] 0.34% | viability, T/C [23] 3.38% | viability, T/C [24] 0.22% | viability, T/C [29] 2.4% | viability, T/C [30] 0.21%
1750 nM: IC50 (second compound 3.16 µM)
2130 nM: IC50 (second compound 1 µM)

CCN1CCN(Cc2ccc(Nc3ncc(F)c(-c4cc(F)c5nc(C)n(C(C)C)c5c4)n3)nc2)CC1 + CC1OCC2(CCN(c3cnc(Sc4ccnc(N)c4Cl)c(N)n3)CC2)C1N
active: viability, T/C [22] 8.29% | viability, T/C [28] 3.85%
inactive: viability, T/C [33] 96.9% | viability, T/C [34] 88.9% | viability, T/C [1] 113% | viability, T/C [2] 148% | viability, T/C [3] 161% | viability, T/C [4] 60.8% | viability, T/C [37] 95.2% | viability, T/C [38] 98.7% | viability, T/C [7] 138% | viability, T/C [8] 155% | viability, T/C [9] 125% | viability, T/C [10] 36.8% | viability, T/C [41] 88.8% | viability, T/C [42] 118% | viability, T/C [13] 138% | viability, T/C [14] 125% | viability, T/C [15] 82.3% | viability, T/C [16] 19.9% | viability, T/C [45] 113% | viability, T/C [46] 130% | viability, T/C [19] 97% | viability, T/C [20] 85.1% | viability, T/C [21] 52.2% | viability, T/C [49] 123% | viability, T/C [50] 92.3% | viability, T/C [25] 67% | viability, T/C [26] 56.8% | viability, T/C [27] 28.7%
326 nM: IC50 (second compound 3.16 µM)
102 nM: IC50 (second compound 10 µM)
839 nM: IC50 (second compound 0.316 µM)
> 1000 nM: IC50 (second compound 0.1 µM)
574 nM: IC50 (second compound 1 µM)

COc1cc2nccc(Oc3ccc(NC(=O)C4(C(=O)Nc5ccc(F)cc5)CC4)cc3)c2cc1OC + CC1OCC2(CCN(c3cnc(Sc4ccnc(N)c4Cl)c(N)n3)CC2)C1N
inactive: viability, T/C [1] 106% | viability, T/C [2] 111% | viability, T/C [3] 105% | viability, T/C [4] 103% | viability, T/C [5] 13.7% | viability, T/C [7] 115% | viability, T/C [8] 98.8% | viability, T/C [9] 109% | viability, T/C [10] 107% | viability, T/C [11] 14.6% | viability, T/C [13] 104% | viability, T/C [14] 112% | viability, T/C [15] 104% | viability, T/C [16] 85.2% | viability, T/C [19] 94% | viability, T/C [20] 92.8% | viability, T/C [21] 83.7% | viability, T/C [22] 43.6% | viability, T/C [25] 63.5% | viability, T/C [26] 60.7% | viability, T/C [27] 48.5% | viability, T/C [28] 21.8%
2030 nM: IC50 (second compound 0.316 µM)
active: viability, T/C [6] 8.67% | viability, T/C [12] 9.03% | viability, T/C [17] 9.37% | viability, T/C [18] 6.62% | viability, T/C [23] 5.99% | viability, T/C [24] 4.64% | viability, T/C [29] 3.73% | viability, T/C [30] 3.26%
1980 nM: IC50 (second compound 0.1 µM)
284 nM: IC50 (second compound 10 µM)
821 nM: IC50 (second compound 3.16 µM)
1710 nM: IC50 (second compound 1 µM)

Cn1ncnc1[C@H]1c2n[nH]c(=O)c3cc(F)cc(c23)N[C@@H]1c1ccc(F)cc1 + CC1OCC2(CCN(c3cnc(Sc4ccnc(N)c4Cl)c(N)n3)CC2)C1N
18.7 nM: IC50 (second compound 3.16 µM)
> 100 nM: IC50 (second compound 0.1 µM) | IC50 (second compound 0.316 µM)
inactive: viability, T/C [31] 107% | viability, T/C [32] 116% | viability, T/C [33] 110% | viability, T/C [34] 90.5% | viability, T/C [1] 84.2% | viability, T/C [2] 62.3% | viability, T/C [35] 126% | viability, T/C [36] 120% | viability, T/C [37] 104% | viability, T/C [38] 84.3% | viability, T/C [7] 76.8% | viability, T/C [8] 58.1% | viability, T/C [39] 119% | viability, T/C [40] 103% | viability, T/C [41] 89.4% | viability, T/C [42] 71.4% | viability, T/C [13] 62.4% | viability, T/C [14] 50.6% | viability, T/C [43] 81.9% | viability, T/C [44] 85.6% | viability, T/C [45] 76.3% | viability, T/C [46] 60.2% | viability, T/C [19] 41.5% | viability, T/C [20] 36% | viability, T/C [47] 66.7% | viability, T/C [48] 68.4% | viability, T/C [49] 49.4% | viability, T/C [50] 41.3% | viability, T/C [25] 31.5% | viability, T/C [26] 25.4%
89.2 nM: IC50 (second compound 1 µM)
4.16 nM: IC50 (second compound 10 µM)
